Structures are written as SMILES. Where only a bound is given, the exact number is not on record here.

The values that follow come from patent publication US20190134005A1 (BioMarin Pharmaceutical Inc., priority 2016, published 2019).

In one test the target is T1, human CGT (Homo sapiens, UniProt Q16880).
T1 sequence (Q16880 21-541): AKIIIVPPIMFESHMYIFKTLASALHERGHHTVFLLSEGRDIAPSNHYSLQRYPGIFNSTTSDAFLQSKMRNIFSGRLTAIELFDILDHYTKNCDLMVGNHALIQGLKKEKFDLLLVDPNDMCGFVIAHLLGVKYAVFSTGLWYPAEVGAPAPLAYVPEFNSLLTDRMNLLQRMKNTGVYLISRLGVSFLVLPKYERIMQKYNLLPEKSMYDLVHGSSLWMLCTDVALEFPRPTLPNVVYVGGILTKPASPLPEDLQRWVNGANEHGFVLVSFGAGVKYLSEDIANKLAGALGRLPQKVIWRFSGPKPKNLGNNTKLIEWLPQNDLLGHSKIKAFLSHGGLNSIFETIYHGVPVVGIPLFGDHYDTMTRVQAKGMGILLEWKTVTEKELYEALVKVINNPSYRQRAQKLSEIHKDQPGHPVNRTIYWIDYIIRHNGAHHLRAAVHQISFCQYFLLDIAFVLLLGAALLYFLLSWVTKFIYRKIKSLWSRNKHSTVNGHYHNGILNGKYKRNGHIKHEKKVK
Put plainly: Assay 1: CGT Enzymatic Assay (RapidFire/MS/MS, 0.01% Tween 80). Particulars: Table 1, Compounds of Formula (I) and Formula (II); CGT enzymatic assay, C6-NBD-dihydro-galactosylceramide readout; read-out: IC50. The format is biochemical.
As a reminder, the IC50 is the concentration that gives 50% inhibition. As for `O=C1N(c2ccc(C(F)(F)F)cc2)C2(COC2)C(O)(c2cccc(OC(F)(F)F)c2)N1c1ccc(C(F)(F)F)cc1` (stereo not drawn) [Compound 302, 8-hydroxy-8-(3-(trifluoromethoxy)phenyl)-5,7-bis(4-(trifluoromethyl)phenyl)-2-oxa-5,7-diazaspiro[3.4]octan-6-one], the IC50 was less than 1000 nM.
Same read-out and setting: as for `COCC1(C)N(c2ccc(Cl)cc2)C(=O)N(c2ccc(Cl)cc2)C1(O)c1cccc(OC(F)(F)F)c1` (mixture of isomers) [Compound 296, 1,3-bis(4-chlorophenyl)-4-hydroxy-5-(methoxymethyl)-5-methyl-4-(3-(trifluoromethoxy)phenyl)imidazolidin-2-one], the figure is less than 1000 nM.

Still in this test, the particulars now being: Table 1, Compounds of Formula (I) and Formula (II); CGT enzymatic assay; read-out: IC50.
On to `C[C@@H]1N(c2ccc(Cl)cc2)C(=O)N(c2ccc(Cl)cc2)C1(O)c1cccc(Br)c1` (stereo partly drawn) [Compound 94-1, (5S)-4-(3-bromophenyl)-1,3-bis(4-chlorophenyl)-4-hydroxy-5-methylimidazolidin-2-one], for which the IC50 is less than 1000 nM.
On to `CCC[C@@H]1N(c2ccc(Br)cc2)C(=O)N(c2ccc(Br)cc2)C1(O)c1cccc(CC)c1` (stereo partly drawn) [Compound 88-1, (5S)-1,3-bis(4-bromophenyl)-4-(3-ethylphenyl)-4-hydroxy-5-propylimidazolidin-2-one], for which the IC50 was less than 1000 nM.
As to `CCC[C@H]1N(c2ccc(Br)cc2)C(=O)N(c2ccc(Br)cc2)C1(O)c1cccc(CC)c1` (stereo partly drawn) [Compound 88-2, (5R)-1,3-bis(4-bromophenyl)-4-(3-ethylphenyl)-4-hydroxy-5-propylimidazolidin-2-one], the IC50 is less than 1000 nM.
Regarding `CN(C)C[C@H]1N(c2ccc(Cl)cc2)C(=O)N(c2ccc(Cl)cc2)C1(O)c1cccc(OC(F)(F)F)c1` (single isomer, unassigned) [Example 166-2], the IC50 is less than 1000 nM.
Take `O=C1N(c2ccc(Br)cc2)C(=O)C(O)(c2ccccc2)N1c1ccc(Br)cc1` (stereo not drawn) [Compound 141, 1,3-bis(4-bromophenyl)-5-hydroxy-5-phenylimidazolidine-2,4-dione]: the IC50 fell in the range of 10000 to 50000 nM.
On to `N#Cc1cccc(C2(O)N(c3ccc(C(F)(F)F)cc3)C(=O)N(c3ccc(C(F)(F)F)cc3)C23CCC3)c1` (stereo not drawn) [Example 212, 3-(8-hydroxy-6-oxo-5,7-bis(4-(trifluoromethyl)phenyl)-5,7-diazaspiro[3.4]octan-8-yl)benzonitrile], for which the IC50 is less than 1000 nM.
Still for that read-out and setting: as for `CC1N(c2ccc(Br)cc2)C(=O)N(c2ccc(Br)cc2)C1(O)c1ccccc1` (stereo not drawn) [Example 13], the figure is less than 1000 nM.
On the same count and under the same terms, as for `CCCc1c(CCC)n(-c2ccc(Br)cc2)c(=O)n1-c1ccc(Br)cc1` [Example 22, 1,3-bis(4-bromophenyl)-4,5-dipropyl-1,3-dihydro-2H-imidazol-2-one], the figure is greater than 50000 nM.
Consider `C[C@H]1N(c2ccc(Br)cc2)C(=O)N(c2ccc(Br)cc2)C1(O)c1cccc(OC(F)(F)F)c1` (stereo partly drawn) [Compound 66-2, (5R)-1,3-bis(4-bromophenyl)-4-hydroxy-5-methyl-4-(3-(trifluoromethoxy)phenyl)imidazolidin-2-one], for which the half-inhibitory concentration (IC50) is less than 1000 nM.
On the same count and under the same terms, the figure for `O=C1N(c2ccc(Br)cc2)CC(O)(c2cccc(OC(F)(F)F)c2)N1c1ccc(Br)cc1` (stereo not drawn) [Compound 58, 1,3-bis(4-bromophenyl)-4-hydroxy-4-(3-(trifluoromethoxy)phenyl)imidazolidin-2-one] is less than 1000 nM.
Turning to `CCC[C@@H]1N(c2ccc(Cl)cc2)C(=O)N(c2ccc(Cl)cc2)C1(O)c1cccc(C)c1` (stereo partly drawn) [Compound 90-1, (5S)-1,3-bis(4-chlorophenyl)-4-hydroxy-5-propyl-4-(m-tolyl)imidazolidin-2-one], the IC50 is less than 1000 nM.
Turning to `CC1N(c2ccc(Cl)cc2)C(=O)N(c2ccc(Cl)cc2)C1(O)c1cccc(C#N)c1` (stereo not drawn) [Compound 99, 3-(1,3-bis(4-chlorophenyl)-4-hydroxy-5-methyl-2-oxoimidazolidin-4-yl)benzonitrile], the IC50 was less than 1000 nM.
The same measure, in the same setting: the figure for `Cc1cccc(-c2cn(-c3ccc(Cl)cc3)c(=O)n2-c2ccc(Cl)cc2)c1` [Compound 259, 1,3-bis(4-chlorophenyl)-4-(m-tolyl)-1,3-dihydro-2H-imidazol-2-one] is greater than 50000 nM.
